Data as given in publication PMC8187357 (Communications Biology, 2021).
Where “and” joins values, the source holds several entries; their conditions need not be identical. Identical values can stand only once. Like-named read-outs stand apart in the source and are kept apart here.

Tests used:
PD-L2 [1] = biological target: T1, PD-L2 (Mus musculus, UniProt Q9WUL5); experiment: Rescue of IFN-γ release inhibited by PD-L2, mouse splenocytes; format: cell-based; details: mean ± S.D.; n=2; read-out: Mouse Splenocyte IFN-γ Rescue EC50 PD-L2
T1 construct: purchased R&D Systems 1022-PL-100
Method: (§1) The ability of peptides, peptidomimetics, and small molecules were analyzed for their ability to rescue T-cell proliferation or IFN-γ release from the inhibitory activity of PD-L1 or PD-L2 in a splenocyte/PBMC-based functional assay as per the protocols reported in publication. […] For all in vitro assays, test agent stock was prepared in water and diluted further in the assay media to achieve test concentrations. Each experimental condition was carried out in triplicates. Percent rescue for a given test compound concentration was calculated by normalizing individual percent test agent proliferation or IFN-γ release values to percent anti-CD3 and anti-CD28 antibodies stimulated proliferation or IFN-γ release. EC50 values were derived by plotting transformed data into non-linear fit in sigmoidal dose–response curve using GraphPad Prism software (Version 7).

Adenosine A1, A2A, A3 = experiment: CEREP 80 panel binding: Adenosine; details: 10 µM
Method: (§2) CEREP 80 panel assay was carried out by Eurofins Cerep Panlabs facility at France. A series of binding assays was carried out to understand the off-target toxicity of CA-170. CA-170 was tested at 10 μM test concentration in duplicates. Compound binding was calculated as a % inhibition of the binding of a radioactively labeled ligand specific for each target. In each experiment the respective reference compound was tested concurrently with CA-170, and the data were compared with historical values determined at Eurofins. The experiment was accepted in accordance with Eurofins validation standard operating procedure. The results are expressed as a percent of control specific binding; (measured specific binding / control specific binding) × 100 and as a percent inhibition of control specific binding; 100−(measured specific binding / control specific binding) × 100 obtained in the presence of CA-170. The IC50 values (concentration causing a half-maximal inhibition of control specific binding) and Hill coefficients (nH) were determined by non-linear regression analysis of the competition curves generated with mean replicate values using Hill equation curve fitting.

Histamine H1,H2 = experiment: CEREP 80 panel binding: Histamine; details: 10 µM
Method: as §2

Glutamate PCP = experiment: CEREP 80 panel binding: Glutamate; details: 10 µM
Method: as §2

MC38 tumor bearing mice = experiment: Immune pharmacodynamics in MC38 model; format: in vivo, mouse; details: CA-170, 10 mg/kg, individual animals
Description: For the measurement of immune pharmacodynamics, CT26 cells were subcutaneously implanted into 5 to 7 weeks old male Balb/c mice by injecting 1 million CT26 tumor cells/ animal. When tumor volume reached ~200mm^3, animals were randomized and allocated to three treatment groups (n = 5). Similarly, for the measurement of immune pharmacodynamics in MC38 model, MC38 cell lines were subcutaneously implanted into 5 to 7 weeks old male C57B6 mice by injecting 0.5 million cells/animal. Dosing was initiated when tumor volume reached ~100 mm^3. In both tumor models, mice were orally treated daily with vehicle and CA-170 (10 mg/kg) for 5 days. As an additional control, anti-PD1 antibody (100 μg/animal, clone J43) was dosed intraperitoneally on day 1. After 24 h of last dosing, animals were sacrificed, and blood samples and tumor tissues were collected from each animal and processed for PD evaluation using antibodies shown in Supplementary Table 1 and specific methods reported in publication[51] and analyzed by FACS. The gating strategy is detailed in Supplementary Fig. 3.

CGRP = biological target: T2, CGRP (Homo sapiens, UniProt O60894+Q16602); experiment: CEREP 80 panel binding: CGRP; details: read-out: % Inhibition of Control Specific Binding
T2 construct: Eurofins Cerep Panlabs (contract assay)
Method: as §2

PD-L2 [2] = biological target: T1, PD-L2; experiment: Rescue of PD-L2 mediated inhibition of proliferation, mouse splenocytes; format: cell-based; details: mean ± S.D.; n=2; read-out: Mouse Splenocyte Proliferation Rescue EC50 PD-L2
Method: For all in vitro assays, test agent stock was prepared in water and diluted further in the assay media to achieve test concentrations. Each experimental condition was carried out in triplicates. Percent rescue for a given test compound concentration was calculated by normalizing individual percent test agent proliferation or IFN-γ release values to percent anti-CD3 and anti-CD28 antibodies stimulated proliferation or IFN-γ release.

B16F10 melanoma = B16F10 melanoma lung metastasis model; format: in vivo, mouse; details: 10 mg/kg/day orally for 14 days
Method: Studies in syngeneic models including B16 melanoma metastasis model and CT26 colon carcinoma subcutaneous model were performed as described. For the Docetaxel combination experiment in CT26 model, indicated dosage of docetaxel (Source: Docetere® injection by Dr Reddy’s Laboratories) was dosed intraperitoneally to animals. For the CA-170 combination groups, CA-170 (10 mg/kg/day, oral) was dosed ~10 min after docetaxel. Animal grouping, treatment efficacy assessment and %TGI calculations were performed as mentioned above. For the CT26 experiment with cyclophosphamide, 100 mg/kg of cyclophosphamide was dosed once on day 5 intraperitoneally after cell implantation (first day of dosing for all other groups). Anti-PD1 antibody (Clone J43 from BioXcel) was dosed intraperitoneally at 100 µg/animal once every week.

PD-L1 = PD-L1 (Homo sapiens, UniProt Q9NZQ7); experiment: Rescue of IFN-γ release inhibited by PD-L1, human PBMC; format: cell-based; set-up: purchased R&D systems 156-B7-100; details: for IFNγ Rescue (%): inhibited by PD-L1; for IFNγ Rescue (%) / IFN-γ: replicates; for IFN-γ: human PBMCs + anti-CD3/anti-CD28 + PD-L1 10 nM
Method: as §1

parental CHO-K1 cells = experiment: Cellular NMR (T2), parental CHO-K1 cells; format: binding; details: cell-based NMR; no measurable PD-L1 expression
Pharmacokinetics in mice = format: in vivo, mouse
Method: Animals in Group 1 were administered with 5% w/v dextrose in water and Group 2 were administered with corresponding formulation listed in the Supplementary Table 6 through oral routes. Blood samples (approximately 40 μl) were collected under light isoflurane anesthesia from submandibular at predose, 0.08 (IV), 0.25, 0.5, 1, 2, 4, 8, and 24 h using sparse sampling technique. Plasma samples were separated by centrifugation of whole blood and stored below −70 °C until bioanalysis. All samples were processed for analysis by protein precipitation and analyzed with fit-for-purpose LC–MS/MS method.

Plasma stability, mice = details: mouse
Method: Test compounds were tested for plasma stability (test concentration of 10 μM) as per the protocols reported in publication[20].

Chain of PD-L1 (Q9NZQ7 with tags, fused parts or gaps limits assumed): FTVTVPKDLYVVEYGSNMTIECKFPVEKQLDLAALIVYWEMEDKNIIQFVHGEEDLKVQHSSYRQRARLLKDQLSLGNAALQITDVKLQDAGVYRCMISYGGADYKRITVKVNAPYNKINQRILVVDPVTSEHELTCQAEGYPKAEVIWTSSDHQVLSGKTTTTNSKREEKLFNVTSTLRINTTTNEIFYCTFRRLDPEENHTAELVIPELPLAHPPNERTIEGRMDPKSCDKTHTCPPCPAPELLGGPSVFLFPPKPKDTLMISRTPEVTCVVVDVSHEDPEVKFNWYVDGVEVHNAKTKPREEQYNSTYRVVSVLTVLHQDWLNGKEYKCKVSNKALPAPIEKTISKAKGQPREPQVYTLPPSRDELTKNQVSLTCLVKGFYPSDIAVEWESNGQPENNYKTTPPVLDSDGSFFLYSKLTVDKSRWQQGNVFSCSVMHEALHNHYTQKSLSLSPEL
T1 sequence (Q9WUL5 with tags, fused parts or gaps limits assumed): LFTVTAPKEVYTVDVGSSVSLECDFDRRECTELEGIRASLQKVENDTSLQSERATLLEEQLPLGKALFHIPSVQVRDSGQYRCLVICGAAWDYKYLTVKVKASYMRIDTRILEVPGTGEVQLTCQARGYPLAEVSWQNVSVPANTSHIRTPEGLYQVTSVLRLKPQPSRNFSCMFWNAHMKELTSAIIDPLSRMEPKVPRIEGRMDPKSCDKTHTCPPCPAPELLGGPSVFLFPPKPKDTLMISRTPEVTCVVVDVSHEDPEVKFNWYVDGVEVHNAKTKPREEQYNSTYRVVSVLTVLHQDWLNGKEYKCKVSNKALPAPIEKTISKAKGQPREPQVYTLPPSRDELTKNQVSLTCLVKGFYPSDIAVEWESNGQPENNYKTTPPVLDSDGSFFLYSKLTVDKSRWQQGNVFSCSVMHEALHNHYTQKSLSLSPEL
T2 sequence (Q16602 23-461): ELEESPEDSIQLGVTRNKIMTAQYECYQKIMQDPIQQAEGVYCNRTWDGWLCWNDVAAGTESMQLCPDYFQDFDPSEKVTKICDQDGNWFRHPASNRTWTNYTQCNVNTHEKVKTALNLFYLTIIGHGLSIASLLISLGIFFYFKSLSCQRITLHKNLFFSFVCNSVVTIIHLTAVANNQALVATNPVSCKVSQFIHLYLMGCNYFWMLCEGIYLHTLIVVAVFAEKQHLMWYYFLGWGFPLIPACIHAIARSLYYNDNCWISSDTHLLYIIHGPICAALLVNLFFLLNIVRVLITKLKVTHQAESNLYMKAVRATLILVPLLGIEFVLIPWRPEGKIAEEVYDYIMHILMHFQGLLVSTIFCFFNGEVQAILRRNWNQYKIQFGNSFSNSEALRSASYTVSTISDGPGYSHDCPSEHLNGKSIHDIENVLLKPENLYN
T2 sequence (O60894 27-148): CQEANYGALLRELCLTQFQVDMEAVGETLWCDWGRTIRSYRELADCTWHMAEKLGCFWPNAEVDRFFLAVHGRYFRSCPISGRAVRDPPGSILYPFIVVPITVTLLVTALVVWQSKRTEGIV

C[C@@H](O)[C@H](NC(=O)N[C@@H](CC(N)=O)c1nc([C@@H](N)CO)no1)C(=O)O [CA-170]
EC50 (PD-L2 [1]): 78.3 nM
% Inhibition of Control Specific Binding (Adenosine A1, A2A, A3): ≤ 26%
% Inhibition of Control Specific Binding (Histamine H1,H2): < 0%
% Inhibition of Control Specific Binding (Glutamate PCP): 5%
CD8+ GNZ+ T cells in Tumor % Lymphocytes, CD3+, CD8+ T cells (MC38 tumor bearing mice): 52.4% and 36.3% and 28.5% and 36.2% and 20.1%
CD8+ IFN-γ+ T cells in Blood % Lymphocytes, CD3+, CD8+ T cells (MC38 tumor bearing mice): 1.71% and 2.24% and 2.27% and 1.35% and 2.63%
CD8+ IFN-γ+ T cells in Tumor % Lymphocytes, CD3+, CD8+ T cells (MC38 tumor bearing mice): 64.9% and 53.2% and 43.5% and 48.8% and 40.7%
inhibition at 10 µM (CGRP): 1%
EC50 (PD-L2 [2]): 40.2 nM
reduction in metastatic nodules (B16F10 melanoma; B16F10, vs vehicle control): 73%
Individual Metastatic nodules on lungs (B16F10 melanoma; B16F10 iv in C57B6 mice, 10 mg/kg/day): 3 and 23 and 2 and 13 and 0 and 8 and 1 and 10 and 14
IFNγ Rescue (%) (PD-L1; 1.95 nM): -2.66% and -2.30% and -1.54%
IFNγ Rescue (%) (PD-L1; 3.91 nM): -2.42% and -2.56% and -1.54%
IFNγ Rescue (%) (PD-L1; 15.63 nM): 20.10% and 20.46% and 27.08%
IFN-γ (PD-L1; 31.25 nM): 256.5 pg/mL and 264 pg/mL and 296.5 pg/mL
IFNγ Rescue (%) (PD-L1; 31.25 nM): 21.31% and 22.51% and 31.08%
IFNγ Rescue (%) (PD-L1; 62.50 nM): 42.13% and 43.48% and 57.23%
IFNγ Rescue (%) (PD-L1; 250.00 nM): 76.76% and 83.89% and 104.62%
IFN-γ (PD-L1; 500 nM): 876.5 pg/mL and 939 pg/mL and 906.5 pg/mL
IFNγ Rescue (%) (PD-L1; 500.00 nM): 81.36% and 91.56% and 106.15%
rescue of IFNγ release inhibited by recombinant PD-L1 (in words) (PD-L1; human PBMCs stimulated with anti-CD3 and anti-CD28): rescued IFNγ release
EC50 (PD-L1; mean ± S.D., n=3): 66.1 nM
binding to parental CHO-K1 cells (in words) (parental CHO-K1 cells): lack of binding
AUC (Pharmacokinetics in mice; male, CD-1, mouse, plasma, mice, intravenous 1 mg kg−1, read-out: Mice PK parameters AUCi iv(0-α)): 4200 ng·h/mL
clearance (Pharmacokinetics in mice; male, CD-1, mouse, plasma, mice, intravenous 1 mg kg−1, read-out: Mice PK parameters Clearance (converted)): 12.1 mL/min/kg
bioavailability (Pharmacokinetics in mice; male, CD-1, mouse, plasma, mice, iv 1 mg kg−1, oral 30 mg kg−1, read-out: Mice PK parameters % F): 50%
AUC (Pharmacokinetics in mice; male, CD-1, mouse, plasma, mice, oral 30 mg kg−1, read-out: Mice PK parameters AUC po (0-α)): 19600 ng·h/mL
Cmax (Pharmacokinetics in mice; male, CD-1, mouse, plasma, mice, oral 30 mg kg−1, read-out: Mice PK parameters Cmax): 1720 ng/mL
half-life (Pharmacokinetics in mice; male, CD-1, mouse, plasma, preclinical PK exposure): 3.4 h
oral bioavailability (in words) (Pharmacokinetics in mice; mouse, in vivo, po): good oral bioavailability
remaining at 4 h, 10 μM (Plasma stability, mice): > 95%
